Legend:
[1] = tested on: Citrobacter freundii IID 976; experiment: In vitro antibacterial activity, MIC (standard strain); type: cell-based; details: IID976; Citrobacter freundii IID 976; 10^6 cells/ml; standard strain; read-out: MIC
S. pneumoniae 2950 = experiment: In vitro antibacterial activity, MIC (clinical isolates); type: cell-based; details: Streptococcus pneumoniae; S. pneumoniae 2950; 10^6 cells/ml; clinical isolate; read-out: MIC
S. pyogenes 4340 = experiment: as above; type: cell-based; details: Streptococcus pyogenes; S. pyogenes 4340; 10^6 cells/ml; clinical isolate; read-out: MIC
S. marcescens GN 7577 = experiment: In vitro antibacterial activity, MIC (standard strain); type: cell-based; details: Serratia marcescens, GN7577; S. marcescens GN 7577; 10^6 cells/ml; standard strain; read-out: MIC
S. pyogenes 3130 = experiment: In vitro antibacterial activity, MIC (clinical isolates); type: cell-based; details: Streptococcus pyogenes, read-out: MIC
S. agalactiae 4470 = experiment: as above; type: cell-based; details: Streptococcus agalactiae; S. agalactiae 4470; 10^6 cells/ml; clinical isolate; read-out: MIC
S. pneumoniae 15 = experiment: as above; type: cell-based; details: Streptococcus pneumoniae; S. pneumoniae 15; 10^6 cells/ml; clinical isolate; read-out: MIC
S. faecalis IID 682 = experiment: In vitro antibacterial activity, MIC (standard strain); type: cell-based; details: Enterococcus faecalis, IID682; S. faecalis IID 682; 10^6 cells/ml; standard strain; read-out: MIC
P. aeruginosa IFO 12689 = experiment: as above; type: cell-based, Pseudomonas aeruginosa; details: Pseudomonas aeruginosa, IFO12689; P. aeruginosa IFO 12689; 10^6 cells/ml; standard strain; read-out: MIC
[2] = tested on: Serratia marcescens IID 618; experiment: as above; type: cell-based; details: Serratia marcescens, IID618, Serratia marcescens IID 618; 10^6 cells/ml; standard strain; read-out: MIC
K. pneumoniae 1-220S = experiment: as above; type: cell-based; details: Klebsiella pneumoniae, 1220S; K. pneumoniae 1-220S; 10^6 cells/ml; standard strain; read-out: MIC
C. ramosum = experiment: as above; type: cell-based; details: Thomasclavelia ramosa; C. ramosum; 10^6 cells/ml; standard strain; read-out: MIC
S. agalactiae 4342 = experiment: In vitro antibacterial activity, MIC (clinical isolates); type: cell-based; details: Streptococcus agalactiae; S. agalactiae 4342; 10^6 cells/ml; clinical isolate; read-out: MIC
[3] = tested on: Klebsiella pneumoniae KY(GN)6445; experiment: In vitro antibacterial activity, MIC (standard strain); type: cell-based; details: Klebsiella pneumoniae KY(GN)6445; 10^6 cells/ml; standard strain; read-out: MIC
[4] = tested on: Alcaligenes faecalis 0104002; experiment: as above; type: cell-based; details: Alcaligenes faecalis, 0104002, Alcaligenes faecalis 0104002; 10^6 cells/ml; standard strain; read-out: MIC
S. pyogenes 3107 = experiment: In vitro antibacterial activity, MIC (clinical isolates); type: cell-based; details: Streptococcus pyogenes; S. pyogenes 3107; 10^6 cells/ml; clinical isolate; read-out: MIC
S. pyogenes 4372 = experiment: as above; type: cell-based; details: Streptococcus pyogenes; S. pyogenes 4372; 10^6 cells/ml; clinical isolate; read-out: MIC
[5] = tested on: Yersinia enterocolitica IID 981; experiment: In vitro antibacterial activity, MIC (standard strain); type: cell-based; details: IID981; Yersinia enterocolitica IID 981; 10^6 cells/ml; standard strain; read-out: MIC
E. coli ML 4707 = experiment: as above; type: cell-based; details: Escherichia coli, ML4707; E. coli ML 4707; 10^6 cells/ml; standard strain; read-out: MIC
S. epidermidis IID 866 = experiment: as above; type: cell-based; details: Staphylococcus epidermidis, IID866, S. epidermidis IID 866; 10^6 cells/ml; standard strain; read-out: MIC
S. agalactiae 4368 = experiment: In vitro antibacterial activity, MIC (clinical isolates); type: cell-based; details: Streptococcus agalactiae; S. agalactiae 4368; 10^6 cells/ml; clinical isolate; read-out: MIC
S. aureus Smith = experiment: In vitro antibacterial activity, MIC (standard strain); type: cell-based, Staphylococcus aureus; details: Staphylococcus aureus; S. aureus Smith; 10^6 cells/ml; standard strain; read-out: MIC
S. faecalis 214 = experiment: In vitro antibacterial activity, MIC (clinical isolates); type: cell-based; details: Enterococcus faecalis; S. faecalis 214; 10^6 cells/ml; clinical isolate; read-out: MIC
S. pneumoniae 2054 = experiment: as above; type: cell-based; details: Streptococcus pneumoniae; S. pneumoniae 2054; 10^6 cells/ml; clinical isolate; read-out: MIC
[6] = tested on: Acinetobacter anitratus IID 876; experiment: In vitro antibacterial activity, MIC (standard strain); type: cell-based; details: Acinetobacter calcoaceticus, IID876, Acinetobacter anitratus IID 876; 10^6 cells/ml; standard strain; read-out: MIC
S. faecalis 49 = experiment: In vitro antibacterial activity, MIC (clinical isolates); type: cell-based; details: Enterococcus faecalis; S. faecalis 49; 10^6 cells/ml; clinical isolate; read-out: MIC
[7] = tested on: Proteus vulgaris IFO 3167; experiment: In vitro antibacterial activity, MIC (standard strain); type: cell-based; details: IFO3167; Proteus vulgaris IFO 3167; 10^6 cells/ml; standard strain; read-out: MIC
B. fragilis 25285 = experiment: as above; type: cell-based, Bacteroides fragilis; details: Bacteroides fragilis, 25285, B. fragilis 25285; 10^6 cells/ml; standard strain; read-out: MIC
S. agalactiae 4394 = experiment: In vitro antibacterial activity, MIC (clinical isolates); type: cell-based; details: Streptococcus agalactiae; S. agalactiae 4394; 10^6 cells/ml; clinical isolate; read-out: MIC
S. pyogenes 3102 = experiment: as above; type: cell-based; details: Streptococcus pyogenes; S. pyogenes 3102; 10^6 cells/ml; clinical isolate; read-out: MIC

Measured: MIC

CCNCC1CCN(c2c(F)cc3c(=O)c(C(=O)O)cn(CC)c3c2F)C1 (stereo not drawn) [Ref.1, 1-Ethyl-7-(3-ethylaminomethyl-1-pyrrolidinyl)-6,8-difluoro-1,4-dihydro-4-oxo-3-quinolinecarboxylic acid, reference compound]
12.5 µg/mL: [4]
0.1 µg/mL: S. pyogenes 3107 | E. coli ML 4707 | S. epidermidis IID 866 | S. aureus Smith
6.25 µg/mL: S. marcescens GN 7577 | P. aeruginosa IFO 12689 | C. ramosum | B. fragilis 25285
0.78 µg/mL: [6] | S. agalactiae 4394
0.05 µg/mL: [7]
0.39 µg/mL: S. pneumoniae 2950 | S. agalactiae 4470 | [2] | K. pneumoniae 1-220S | S. agalactiae 4342 | [5] | S. faecalis 214 | S. pneumoniae 2054 | S. faecalis 49
0.2 µg/mL: all other assays above
